Measured values from ChEMBL document CHEMBL5620389, “Development of diphenylmethylpiperazine hybrids of chloroquinoline and triazolopyrimidine using Petasis reaction as new cysteine proteases inhibitors for malaria therapeutics” (Eur J Med Chem, 2023).
pIC50: −log10 of the molar value. Activity calls are given as the source filed them.

What was measured:
Plasmodium falciparum [1] = test: Antimalarial activity against chloroquine-sensitive Plasmodium falciparum 3D7 infected in RBC incubated for 50 hrs by SYBR green I staining based microplate reader assay; type: functional, organism-based; conditions: 3D7, Erythrocyte
Plasmodium falciparum [2] = test: Antimalarial activity against chloroquine-resistant Plasmodium falciparum W2 infected in RBC incubated for 50 hrs by SYBR green I staining based microplate reader assay; type: functional, organism-based; conditions: W2, Erythrocyte
Falcipain 2 = target: T1, Falcipain 2 (Plasmodium falciparum, UniProt Q9N6S8); test: Inhibition of Plasmodium falciparum FP2 using Z-Leu-Arg-AMC as substrate preincubated for 30 mins followed by substrate addition and measured for 30 mins by spectrofluorometer analysis
T1 sequence (Q9N6S8 whole entry): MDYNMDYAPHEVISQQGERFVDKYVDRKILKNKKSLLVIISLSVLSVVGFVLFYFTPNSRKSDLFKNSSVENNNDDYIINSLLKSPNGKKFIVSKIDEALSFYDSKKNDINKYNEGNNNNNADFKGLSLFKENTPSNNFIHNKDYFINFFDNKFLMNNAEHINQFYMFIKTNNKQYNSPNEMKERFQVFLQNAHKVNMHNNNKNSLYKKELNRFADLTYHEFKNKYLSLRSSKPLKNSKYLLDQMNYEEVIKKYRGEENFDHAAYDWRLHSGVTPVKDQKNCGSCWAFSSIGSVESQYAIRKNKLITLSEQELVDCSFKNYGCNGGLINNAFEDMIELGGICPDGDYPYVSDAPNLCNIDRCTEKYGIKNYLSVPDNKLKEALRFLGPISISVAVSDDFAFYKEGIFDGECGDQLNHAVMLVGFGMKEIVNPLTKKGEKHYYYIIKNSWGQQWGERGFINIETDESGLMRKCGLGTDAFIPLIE

Falcipain-3 = target: T2, Falcipain-3 (Plasmodium falciparum 3D7, UniProt Q8IIL0); test: Inhibition of Plasmodium falciparum FP3 using Z-Leu-Arg-AMC as substrate preincubated for 30 mins followed by substrate addition and measured for 30 mins by spectrofluorometer analysis
T2 sequence (Q8IIL0 whole entry): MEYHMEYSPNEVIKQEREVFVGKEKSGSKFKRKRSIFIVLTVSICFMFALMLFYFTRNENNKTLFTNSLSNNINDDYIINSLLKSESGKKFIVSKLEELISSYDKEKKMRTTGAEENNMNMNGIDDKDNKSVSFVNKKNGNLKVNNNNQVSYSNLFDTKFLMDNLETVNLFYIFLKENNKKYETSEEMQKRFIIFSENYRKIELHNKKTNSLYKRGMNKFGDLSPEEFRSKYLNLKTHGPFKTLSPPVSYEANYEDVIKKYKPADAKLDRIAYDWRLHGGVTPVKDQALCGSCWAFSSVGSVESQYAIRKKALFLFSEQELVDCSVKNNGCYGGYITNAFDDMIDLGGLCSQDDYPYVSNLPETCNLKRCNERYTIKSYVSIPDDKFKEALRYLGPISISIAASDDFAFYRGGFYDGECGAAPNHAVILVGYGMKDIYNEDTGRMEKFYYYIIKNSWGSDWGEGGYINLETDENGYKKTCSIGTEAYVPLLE

Plasmodium falciparum [3] = test: Antiplasmodial activity against synchronized Plasmodium falciparum 3D7 assessed as arrest in parasite development at trophozoite stage at 3 times IC50 after 24 to 48 hrs by Giesma-staining based light microscopic analysis; type: functional, organism-based; conditions: time 24-48 hrs
[4] = Cytotoxicity against African green monkey Vero cells at 1000 uM; type: toxicity, cell-based; conditions: chlorocebus sabaeus
[5] = Cytotoxicity against human […] cells incubated for 24 hrs by MTT assay; type: toxicity, cell-based
Erythrocyte = test: Hemolytic activity in human RBC at 100 uM incubated for 2 hrs by microplate reader analysis; type: toxicity, cell-based
Plasmodium falciparum [6] = test: Antimalarial activity against chloroquine-sensitive Plasmodium falciparum 3D7 incubated for 72 hrs by MSF assay; type: functional, organism-based; conditions: 3D7, 72 h
Plasmodium falciparum [7] = test: Antimalarial activity against chloroquine-sensitive Plasmodium falciparum K1 incubated for 72 hrs by MSF assay; type: functional, organism-based; conditions: K1, 72 h
Plasmodium yoelii [8] = test: Antimalarial activity against Plasmodium yoelii N67 infected in Swiss mouse assessed as parasitemia suppression at 12.5 mg/kg/day, po measured on day 4; type: functional; conditions: time 4 day
Plasmodium yoelii [9] = test: Antimalarial activity against Plasmodium yoelii N67 infected in Swiss mouse assessed as curative rate at 12.5 mg/kg/day, po measured on day 28; type: functional; conditions: time 28 day
Plasmodium falciparum [10] = test: Antimalarial activity against Plasmodium falciparum K1; type: functional, organism-based
Plasmodium falciparum [11] = test: Antimalarial activity against Plasmodium falciparum 3D7; type: functional, organism-based

SMILES | pIC50 (Plasmodium falciparum [1]) | pIC50 (Plasmodium falciparum [2]) | pIC50 (Falcipain 2) | pIC50 (Falcipain-3) | Activity (Plasmodium falciparum [3]) | Activity [4] | IC50 at 24 h [5] | Activity (Erythrocyte) | also measured
COc1cccc(C(c2ccc(F)c(F)c2)N2CCN(c3ccnc4cc(Cl)ccc34)CC2)c1O (stereo not drawn) | 5.88 | 5.85 | 4.98 | 4.97 | Active | Non-Toxic | 17.9 µM | Toxic | 
Oc1ccccc1C(c1ccc(OC(F)(F)F)cc1)N1CCN(c2ccnc3cc(Cl)ccc23)CC1 (stereo not drawn) | 6.13 | 5.91 | 5.32 | 5.33 | Active | Non-Toxic | 104 µM | Toxic | 
Cc1ccc(C(c2ccccc2O)N2CCN(c3ccnc4cc(Cl)ccc34)CC2)cc1 (stereo not drawn) | 5.97 | 5.89 | 5.21 | 5.17 | Active | Non-Toxic | 134 µM | Toxic | 
CCN1CCN(CC(CC(C)C)Nc2ccnc3cc(Cl)ccc23)CC1 (stereo not drawn) |  |  |  |  |  |  |  |  | pIC50 (Plasmodium falciparum [6]): 7.24; pIC50 (Plasmodium falciparum [7]): 7.01; Activity (Plasmodium yoelii [8]): 100%; Activity (Plasmodium yoelii [9]): 100%
COc1cccc(C(c2ccc(C(F)(F)F)cc2)N2CCN(c3ccnc4cc(Cl)ccc34)CC2)c1O (stereo not drawn) | 6.28 | 5.48 | 5.27 | 5.21 | Active | Non-Toxic | 32.9 µM | Toxic | 
COc1ccc(C(c2cccc(OC)c2O)N2CCN(c3ccnc4cc(Cl)ccc34)CC2)cc1 (stereo not drawn) | 5.96 | 5.59 | 5.15 | 5.11 |  | Non-Toxic | 214 µM | Toxic | 
COc1cccc(C(c2ccc(Cl)c(Cl)c2)N2CCN(c3ccnc4cc(Cl)ccc34)CC2)c1O (stereo not drawn) | 5.97 | 6.18 | 5.34 | 5.23 | Active | Non-Toxic | 172 µM | Toxic | 
CCN(CC)CCCC(C)Nc1ccnc2cc(Cl)ccc12 (stereo not drawn) [CHLOROQUINE] |  |  |  |  |  |  |  | Toxic | 
Oc1ccccc1C(c1ccc(F)c(F)c1)N1CCN(c2ccnc3cc(Cl)ccc23)CC1 (stereo not drawn) | 6.13 | 5.98 | 5.41 | 5.31 | Active | Non-Toxic | 188 µM | Toxic | 
Oc1ccccc1C(c1ccc(F)c(Cl)c1)N1CCN(c2ccnc3cc(Cl)ccc23)CC1 (stereo not drawn) | 5.92 | 6.34 | 5.06 | 5.00 | Active | Non-Toxic | 139 µM | Toxic | 
CC(C)(C)NCc1ccc(Nc2ccnc3cc(Cl)ccc23)cc1O [GSK-369796] |  |  |  |  |  |  |  |  | pIC50 (Plasmodium falciparum [10]): 7.89; pIC50 (Plasmodium falciparum [11]): 7.96
COc1cccc(C(c2ccc(OC(F)(F)F)cc2)N2CCN(c3ccnc4cc(Cl)ccc34)CC2)c1O (stereo not drawn) | 5.83 |  |  |  |  |  |  | Toxic | 

More lines, main results first:

pIC50 (Plasmodium falciparum [1]) | SMILES | pIC50 (Plasmodium falciparum [2]) | pIC50 (Falcipain 2) | pIC50 (Falcipain-3) | Activity (Plasmodium falciparum [3]) | Activity [4] | IC50 at 24 h [5] | Activity (Erythrocyte) | also measured
5.84 | COc1cccc(C(c2ccc(F)c(Cl)c2)N2CCN(c3ccnc4cc(Cl)ccc34)CC2)c1O (stereo not drawn) |  |  |  |  |  |  | Toxic | 
5.48 | Cc1cc(N2CCN(C(c3ccc(Cl)c(Cl)c3)c3ccccc3O)CC2)n2ncnc2n1 (stereo not drawn) |  |  |  |  |  |  | Toxic | 
< 4.60 | COc1ccc(C(c2ccccc2O)N2CCN(c3cc(C)nc4ncnn34)CC2)cc1 (stereo not drawn) |  |  |  |  |  |  | Toxic | 
4.46 | Cc1cc(N2CCN(C(c3ccc(F)cc3)c3ccccc3O)CC2)n2ncnc2n1 (stereo not drawn) |  |  |  |  |  |  | Toxic | 
5.78 | COc1cccc(C(c2ccc(C)cc2)N2CCN(c3ccnc4cc(Cl)ccc34)CC2)c1O (stereo not drawn) |  |  |  | Active |  |  | Toxic | 
5.79 | COc1ccc(C(c2ccccc2O)N2CCN(c3ccnc4cc(Cl)ccc34)CC2)cc1 (stereo not drawn) |  |  |  |  |  |  | Toxic | 
5.85 | Oc1ccccc1C(c1ccc(C(F)(F)F)cc1)N1CCN(c2ccnc3cc(Cl)ccc23)CC1 (stereo not drawn) |  |  |  |  |  |  | Toxic | 
5.16 | Cc1cc(N2CCN(C(c3ccc(F)c(F)c3)c3ccccc3O)CC2)n2ncnc2n1 (stereo not drawn) |  |  |  |  |  |  | Toxic | 
< 4.60 | Cc1ccc(C(c2ccccc2O)N2CCN(c3cc(C)nc4ncnn34)CC2)cc1 (stereo not drawn) |  |  |  |  |  |  | Toxic | 
5.81 | COc1cccc(C(c2ccc(F)cc2)N2CCN(c3ccnc4cc(Cl)ccc34)CC2)c1O (stereo not drawn) |  |  |  |  |  |  | Toxic | 
